# The source made the active and inactive calls.
# Assays:
# [1] = target: FAD-linked sulfhydryl oxidase ALR (Homo sapiens, UniProt P55789); assay: ALR-catalysed DTT oxidation blockers – biochemical, H2O2 detection, luminescence, cherry-pick, dose response (AID 493248)
# [2] = luciferase reporter signal suppression in cells – H4 neuroglioma cells, luminescence, dose response (AID 1990); assay type: functional, cell-based
# [3] = Luminescence Cell-Based Dose Response HTS to Identify Inhibitors of 5'UTR Stem-Loop Driven Prion Protein mRNA Translation in H4 Neuroglioblastoma Cells. [Related pubchem assays: 1827 (Project Summary), 1813 (Primary HTS)]; assay type: functional
# [4] = alpha-synuclein stem-loop luciferase translation blockers – H4 neuroglioma cells, luminescence, confirmation (AID 1988); assay type: functional, cell-based
# Streptokinase A = target: T1, Streptokinase A (Streptococcus pyogenes serotype M1, UniProt P10520); assay: viability-normalized secreted streptokinase activity reduction – plasminogen activation absorbance, OD405, dose response (AID 1914); assay type: functional, Streptococcus pyogenes M1 GAS;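 note: secreted streptokinase activity via plasminogen activation per viability signal from cell pellet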
# T1 sequence (P10520 whole entry): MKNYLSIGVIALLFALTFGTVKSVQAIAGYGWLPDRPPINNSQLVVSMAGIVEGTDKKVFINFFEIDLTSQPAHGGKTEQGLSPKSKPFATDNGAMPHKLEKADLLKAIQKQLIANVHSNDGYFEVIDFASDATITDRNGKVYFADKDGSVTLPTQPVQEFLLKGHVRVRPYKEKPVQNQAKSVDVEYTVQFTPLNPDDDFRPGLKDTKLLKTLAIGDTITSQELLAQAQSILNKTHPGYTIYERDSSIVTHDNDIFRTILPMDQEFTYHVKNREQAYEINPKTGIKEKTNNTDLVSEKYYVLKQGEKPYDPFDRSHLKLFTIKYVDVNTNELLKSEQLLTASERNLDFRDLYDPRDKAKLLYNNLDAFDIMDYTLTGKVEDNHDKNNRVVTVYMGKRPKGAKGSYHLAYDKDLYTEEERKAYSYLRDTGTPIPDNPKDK
# [5] = Luminescence Cell-Based Dose Retest to Confirm Inhibitors of Cancer Stem Cells. [Related pubchem assays (depositor defined):AID2717, AID2721]; assay type: functional; details: Homo sapiens
# [6] = test system: Streptococcus sp. 'group A'; assay: Streptococcus pyogenes SK(-)GAS viability under kanamycin – luminescence, BacTiterGlo, confirmation, counter-screen for streptokinase expression inhibitor project, dose response (AID 1900); assay type: functional, organism-based
# Streptococcus = assay: GAS UMAA2166 growth inhibition – luminescence, BacTiterGlo, counter-screen for streptokinase expression inhibitor project, dose response (AID 1915); assay type: functional, organism-based;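 note: potency for reduction of bacterial viability or growth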
# [7] = NIH3T3 cell viability loss – ATP luminescence, mouse fibroblasts, counter-screen, dose response (AID 2010); assay type: functional, cell-based;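 note: cells exposed to compound for about 90 hours before reading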
# [8] = Trypanosoma cruzi growth suppression in host cells – NIH3T3 host cells, beta-gal luminescence, confirmation (AID 2044); assay type: functional, cell-based;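 note: intracellular parasites grown in NIH/3T3 mouse fibroblasts as host cells; luminescent beta-galactosidase reporter signal from transgenic T. cruzi replicating inside host cells; inhibitors lower the luminescence signal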
# Cytochrome P450 2C19 = Cytochrome P450 2C19 (Homo sapiens, UniProt P33261); assay: Cytochrome panel assay with activity outcomes. Panel member name: p450-cyp2c19 Compounds with AC50 equal or less than 10 uM are considered active; assay type: functional; details: read-out: AC50
# [9] = target: T2, Corticotropin-releasing factor receptor 2/Corticotropin-releasing factor-binding protein (Homo sapiens, UniProt P24387+Q13324); assay: activators of CRF receptor 2 with binding protein – uHTS hits, confirmation (AID 602473); assay type: functional; details: read-out: EC50_Mean
# T2 sequence (Q13324 whole entry): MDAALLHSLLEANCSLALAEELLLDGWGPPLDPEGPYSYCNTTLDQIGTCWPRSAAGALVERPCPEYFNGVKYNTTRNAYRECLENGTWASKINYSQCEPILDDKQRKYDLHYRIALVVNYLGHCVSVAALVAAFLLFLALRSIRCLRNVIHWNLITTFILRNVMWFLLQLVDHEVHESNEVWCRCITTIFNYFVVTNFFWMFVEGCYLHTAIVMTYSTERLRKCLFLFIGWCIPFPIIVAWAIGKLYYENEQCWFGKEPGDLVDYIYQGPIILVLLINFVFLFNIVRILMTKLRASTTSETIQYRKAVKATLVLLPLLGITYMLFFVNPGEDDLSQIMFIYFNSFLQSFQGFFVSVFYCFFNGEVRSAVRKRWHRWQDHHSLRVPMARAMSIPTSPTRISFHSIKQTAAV
# T2 sequence (P24387 whole entry): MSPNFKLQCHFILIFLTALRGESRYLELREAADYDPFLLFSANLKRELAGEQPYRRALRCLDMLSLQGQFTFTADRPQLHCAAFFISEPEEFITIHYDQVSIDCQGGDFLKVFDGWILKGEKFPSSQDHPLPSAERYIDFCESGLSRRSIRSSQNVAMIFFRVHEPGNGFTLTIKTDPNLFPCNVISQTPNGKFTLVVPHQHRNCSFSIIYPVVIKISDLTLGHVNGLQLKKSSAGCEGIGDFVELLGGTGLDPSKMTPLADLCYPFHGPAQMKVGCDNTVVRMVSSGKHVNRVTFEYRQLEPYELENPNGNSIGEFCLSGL
# [10] = target: T3, Rac GTPase-activating protein 1 (Homo sapiens, UniProt Q9H0H5); assay: blockers of MgcRacGAP-driven Rac1 GTP hydrolysis – biochemical, ADP Hunter fluorescence, primary and confirmatory, confirmation (AID 624330); assay type: functional
# T3 sequence (Q9H0H5 whole entry): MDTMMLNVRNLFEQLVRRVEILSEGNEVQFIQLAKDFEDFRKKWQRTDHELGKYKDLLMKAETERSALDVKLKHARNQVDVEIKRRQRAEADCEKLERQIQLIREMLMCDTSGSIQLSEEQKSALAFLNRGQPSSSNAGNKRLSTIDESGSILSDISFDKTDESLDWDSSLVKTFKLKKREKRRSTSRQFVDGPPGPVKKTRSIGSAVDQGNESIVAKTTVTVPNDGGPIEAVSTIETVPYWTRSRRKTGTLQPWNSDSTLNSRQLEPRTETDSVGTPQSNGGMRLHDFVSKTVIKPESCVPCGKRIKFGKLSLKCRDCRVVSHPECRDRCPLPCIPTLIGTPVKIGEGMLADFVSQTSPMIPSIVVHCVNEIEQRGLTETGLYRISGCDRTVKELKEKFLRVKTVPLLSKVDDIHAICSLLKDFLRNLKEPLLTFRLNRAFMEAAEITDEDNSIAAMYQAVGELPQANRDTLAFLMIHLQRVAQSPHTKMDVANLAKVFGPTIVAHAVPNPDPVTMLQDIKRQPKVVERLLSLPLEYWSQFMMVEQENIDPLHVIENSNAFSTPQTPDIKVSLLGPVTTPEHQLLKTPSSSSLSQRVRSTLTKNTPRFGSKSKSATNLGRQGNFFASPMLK
# [11] = reduction of Shn3 3'UTR-driven luciferase in osteoblasts – cell-based, Clone20 osteoblasts, firefly luciferase, cherry-picked, dose response (AID 624132); assay type: functional;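 note: firefly luciferase luminescence from reporter carrying the Shn3 3'UTR in osteoblasts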
# Paired box protein Pax-8 = Paired box protein Pax-8 (Homo sapiens, UniProt Q06710); assay: PAX8 transcriptional activity inhibition in RMG-I – RMG-I cells, luciferase, cherry-pick, dose response (AID 687027); assay type: functional, cell-based;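 note: luciferase reporter driven by Pax8 target thyroperoxidase promoter measured by SteadyGlo luminescence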
# Chain of Paired box protein Pax-8 (Q06710 whole entry): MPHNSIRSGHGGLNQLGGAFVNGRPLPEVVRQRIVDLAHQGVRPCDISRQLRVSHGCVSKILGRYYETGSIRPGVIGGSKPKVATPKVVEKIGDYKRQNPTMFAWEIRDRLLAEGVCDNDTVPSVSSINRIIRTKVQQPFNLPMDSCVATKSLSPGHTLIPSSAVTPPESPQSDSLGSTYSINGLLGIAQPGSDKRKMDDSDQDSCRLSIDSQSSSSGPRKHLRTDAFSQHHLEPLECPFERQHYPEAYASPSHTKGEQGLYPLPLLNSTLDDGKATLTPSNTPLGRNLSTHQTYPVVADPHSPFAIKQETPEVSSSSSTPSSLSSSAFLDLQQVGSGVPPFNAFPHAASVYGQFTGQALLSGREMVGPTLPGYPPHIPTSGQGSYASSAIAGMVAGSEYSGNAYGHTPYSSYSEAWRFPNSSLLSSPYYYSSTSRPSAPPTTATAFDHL
# Chain of FAD-linked sulfhydryl oxidase ALR (P55789 whole entry): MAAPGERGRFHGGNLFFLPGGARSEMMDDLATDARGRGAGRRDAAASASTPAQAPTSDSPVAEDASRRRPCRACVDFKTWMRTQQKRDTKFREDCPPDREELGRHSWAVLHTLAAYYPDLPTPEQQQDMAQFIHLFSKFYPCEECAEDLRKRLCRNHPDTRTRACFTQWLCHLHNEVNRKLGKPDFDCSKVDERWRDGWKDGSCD
# Chain of Cytochrome P450 2C19 (P33261 whole entry): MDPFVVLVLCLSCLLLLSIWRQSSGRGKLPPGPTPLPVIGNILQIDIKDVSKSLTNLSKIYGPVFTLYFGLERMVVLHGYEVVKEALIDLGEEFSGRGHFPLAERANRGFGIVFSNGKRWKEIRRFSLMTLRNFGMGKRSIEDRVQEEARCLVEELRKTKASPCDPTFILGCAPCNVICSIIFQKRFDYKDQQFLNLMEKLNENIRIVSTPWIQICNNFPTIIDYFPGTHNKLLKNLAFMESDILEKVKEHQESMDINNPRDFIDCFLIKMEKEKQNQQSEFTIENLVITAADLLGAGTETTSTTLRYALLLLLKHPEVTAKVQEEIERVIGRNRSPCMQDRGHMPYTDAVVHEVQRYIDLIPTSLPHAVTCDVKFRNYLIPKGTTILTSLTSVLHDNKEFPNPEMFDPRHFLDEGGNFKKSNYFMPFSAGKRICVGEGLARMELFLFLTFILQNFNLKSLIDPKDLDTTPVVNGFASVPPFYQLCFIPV
smiles,measurement,setting,value
COc1ccc2[nH]c(C)c(-c3csc(N)n3)c2c1,AC50,[1],5.23 µM (active)
Cc1ccc(-c2nc(-c3cccnc3)sc2CC(=O)Nc2ccc(C)c(Cl)c2)cc1,EC50,[2],> 120 µM (not active)
same,EC50,[3],0.3 µM (active)
same,EC50,[4],> 120 µM (not active)
O=[N+]([O-])c1cccnc1N1CCC(c2cc(-c3ccc(Cl)cc3Cl)[nH]n2)CC1,EC50,Streptokinase A,4.61 µM (active)
same,AC50,[5],4.74 µM (active)
same,EC50,[6],2.31 µM (active)
same,EC50,Streptococcus,13.4 µM (active)
O=C(COC(=O)c1c2c(nc3ccccc13)/C(=C\c1cccs1)CCC2)Nc1ccccc1,EC50,[7],> 60 µM (inconclusive)
same,EC50,[8],1.9 µM (active)
same,AC50,[5],1.54 µM (active)
COc1ccc(Cc2nnc(NC(=O)c3ccc(OC)c(OC)c3)s2)cc1OC,EC50,[2],> 120 µM (not active)
same,EC50,[3],> 120 µM (not active)
same,EC50,[4],> 120 µM (not active)
CCCCCNCC(=O)Nc1cccc(C(=O)Nc2cccc(C(F)(F)F)c2)c1,AC50,[5],9.98 µM (active)
O=C1/C(=C\c2cc(Br)cc(Br)c2O)SC(=S)N1Cc1ccccc1,AC50,[5],0.894 µM (active)
Cc1ccccc1CS(=O)(=O)c1ccc(C(=O)N2CCOCC2)cc1[N+](=O)[O-],EC50,[2],> 120 µM (not active)
same,EC50,[3],> 120 µM (not active)
same,EC50,[4],> 120 µM (not active)
N#Cc1c2n(c3c(S)ncnc13)CCCCC2,AC50,Cytochrome P450 2C19,25.1 µM (inconclusive)
same,AC50,[1],1.65 µM (active)
Cc1ccc(-c2ccc(CCC(=O)O)n2NC(=O)c2cccs2)cc1,AC50,[1],8.15 µM (active)
COCCNc1nnnc2c1sc1nc(N3CCOCC3)c3c(c12)CC(C)(C)OC3,EC50,[2],15.8 µM (active)
same,EC50,[3],> 120 µM (not active)
same,EC50,[4],> 120 µM (not active)
CC(C)(C)NC(=O)c1ccc2c(c1)C1C3CCC(C3)C1C(c1ccccc1)N2 (centres undefined),EC50,[2],> 120 µM (not active)
same,EC50,[3],> 120 µM (not active)
same,EC50,[4],> 120 µM (not active)
COc1ccc(C(=O)NC(=S)N2CCN(c3ccccc3OC)CC2)cc1OC,EC50,[2],> 120 µM (not active)
same,EC50,[3],> 120 µM (not active)
same,EC50,[4],> 120 µM (not active)
Nc1nc2c3ccccc3nc(Cc3ccccc3)n2n1,EC50,[2],29.4 µM (active)
same,EC50,[3],> 120 µM (not active)
same,EC50,[4],20.8 µM (active)
N#Cc1ccc(NCCc2ccccn2)c([N+](=O)[O-])c1,EC50,[2],23.7 µM (active)
same,EC50,[3],> 120 µM (not active)
same,EC50,[4],> 120 µM (not active)
Cc1cc(C)nc(NC(=O)/C=C/c2cccs2)c1,AC50,[5],6.68 µM (active)
O=[N+]([O-])c1cc(-c2cnc3ccccc3n2)ccc1Oc1ccc(Cl)cc1,AC50,[5],0.628 µM (active)
Cc1ccc(-n2c(C)cc(C(=O)CN3C(=O)C(=O)N(C4CCCC4)C3=O)c2C)cc1,EC50,[9],> 53 µM (inactive)
CCOC(=O)C(O)(c1ccc(NC(=S)NC(=O)c2ccc(Cl)cc2Cl)cc1)C(F)(F)F (centres undefined),EC50,[9],15.9 µM (active)
Cc1cc(NC(=O)CN2C(=O)NC(C)(c3ccc(OC(F)F)cc3)C2=O)no1 (centres undefined),EC50,[9],14.4 µM (active)
Cc1onc(-c2c(Cl)cccc2Cl)c1C(=O)NNc1ccccc1,AC50,[5],1.44 µM (active)
CCOC(=O)Nc1sc(C(=O)N(C)C)c(C)c1C(=O)OCC,EC50,[2],23.9 µM (active)
same,EC50,[3],> 120 µM (not active)
same,EC50,[4],76.5 µM (active)
CC1(C)Cc2nc3[nH]nc(N)c3cc2CO1,AC50,[1],4.26 µM (active)
Cc1cc2c3c(ccc(C)c3n1)N=CN2c1ccccc1,EC50,[2],12.3 µM (active)
same,EC50,[3],23.3 µM (active)
same,EC50,[4],119 µM (active)
CC(=O)N1CCN(c2ccc(NCc3cccc(C)c3)cc2)CC1,IC50,[10],9.89 µM (active)
same,AC50,[1],0.787 µM (active)
CN1C(=O)c2ccccc2NC(=O)C1Cc1ccccc1 (centres undefined),AC50,[1],3.26 µM (active)
CC(=O)Nc1ccc(N2C(=O)CSC2c2ccccc2)cc1 (centres undefined),AC50,[1],0.025 µM (active)
CCCNC(=O)c1onc(CSc2ccc(Cl)cc2)c1C(=O)NCCC(C)C,AC50,[5],1.93 µM (active)
CCc1cccc(CC)c1N1C(=O)C2=C(SCCCS2)C1=O,EC50,[9],6.9 µM (active)
COc1ccc(OC)c(NC(=O)c2cc(-c3cc(F)ccc3OCC3CCCO3)[nH]n2)c1 (centres undefined),AC50,[11],10.5 µM (active)
Cc1ccc(S(=O)(=O)Nc2ccc3c(c2)C(=O)N([C@@H](C)CO)C[C@@H](C)[C@@H](CN(C)Cc2ccc(Cl)c(Cl)c2)OCCCC[C@@H](C)O3)cc1,AC50,Paired box protein Pax-8,9.18 µM (active)
C[C@@H]1CCCCO[C@H](CN(C)C(=O)Nc2ccc(C(F)(F)F)cc2)[C@@H](C)CN([C@@H](C)CO)C(=O)c2cc(NC(=O)Nc3ccccc3)ccc2O1,AC50,Paired box protein Pax-8,1.89 µM (active)
C[C@@H]1CN([C@@H](C)CO)C(=O)Cc2cc(NC(=O)C3CC3)ccc2O[C@H]1CN(C)Cc1ccc(-c2ccccc2)cc1,AC50,Paired box protein Pax-8,18.9 µM (active)
Cc1ccc(N/N=C2/CCCNC2=O)cc1,AC50,[1],2.66 µM (active)
CC1=CC(C)[C@H](/C=N/n2c(=O)[nH]c3c([nH]c4ccc(Br)cc43)c2=O)C(C)C1 (some centres undefined),EC50,[7],> 60 µM (not active)
same,EC50,[8],2.06 µM (active)
same,AC50,[5],0.876 µM (active)
